Reference: patent US20240384350A1, “METHODS OF TREATING CANCER WITH KINASE INHIBITORS” (BOARD OF REGENTS, THE UNIVERSITY OF TEXAS SYSTEM, priority 2021, published 2024)

What was measured:
Assay in all cases: Ba/F3 drug screening, Cell Titer Glo, IC50 Mut/WT
Type in all cases: cell-based
[1] = target: T1, EGFR E709A (Homo sapiens, UniProt P00533, E709A)
T1 construct: expressed in transfected cells; host or cells: Ba/F3
Experimental: (§1) Data represent the ratio of the IC50 value for a given TKI for cells with a PACC EGFR mutation to the IC50 value for cells with wildtype EGFR.
(§2) Ba/F3 cell generation, drug screening, and IC50 approximations. Ba/F3 cells were obtained as a gift from Dr. Gordon Mills (MD Anderson Cancer Center), and maintained in RPMI (Sigma) containing 10% FBS, 1% penicillin/streptomycin, and 10 ng/ml recombinant mIL-3 (R&D Biosystems). To establish stable Ba/F3 cell lines, Ba/F3 cells were transduced with retroviruses containing mutant EGFR plasmids for 12-24 hours.
(§3) After 48-72 hours of transduction, 2 μg/ml puromycin (Invitrogen) was added to Ba/F3 cell lines in complete RPMI. To select for EGFR positive cell lines, cells were stained with PE-EGFR (Biolegend) and sorted by FACS. After sorting, EGFR positive cells were maintained in RPMI containing 10% FBS, 1% penicillin/streptomycin, and 1 ng/ml EGF to support cell viability. Drug screening was performed as previously described^41,42. Shortly, cells were plated in 384-well plates (Greiner Bio-One) at 2000-3000 cells per well in technical triplicate. Seven different concentrations of TKIs or DMSO vehicle were added to reach a final volume of 40 μL per well. After 72 hours, 11 μL of Cell Titer Glo (Promega) was added to each well. Plates were incubated for a minimum of 10 minutes, and bioluminescence was determined using a FLUOstar OPTIMA plate reader (BMG LABTECH). Raw bioluminescence values were normalized to DMSO control treated cells, and values were plotted in GraphPad Prism. […] Drug screens were performed in technical triplicate on each plate and either duplicate or triplicate biological replicates.

[2] = target: T2, EGFR L858R/L718V (Homo sapiens, UniProt P00533, L718V/L858R)
T2 construct: host or cells: Ba/F3
Experimental: as §1, §2, §3

[3] = target: T3, EGFR H773insNPH (Homo sapiens, UniProt P00533, INS773NPH); settings: Ex20, 72 hours
T3 construct: expressed in transfected cells; host or cells: Ba/F3 cells, retroviral pBabe-Puro vector
Experimental: Data represent the ratio of the IC50 value for a given TKI for cells with an ex20ins EGFR mutation to the IC50 value for cells with wildtype EGFR.
as §2
After 48-72 hours of transduction, 2 μg/ml puromycin (Invitrogen) was added to Ba/F3 cell lines in complete RPMI. To select for EGFR positive cell lines, cells were stained with PE-EGFR (Biolegend) and sorted by FACS. After sorting, EGFR positive cells were maintained in RPMI containing 10% FBS, 1% penicillin/streptomycin, and 1 ng/ml EGF to support cell viability. Drug screening was performed as previously described^41,42. Shortly, cells were plated in 384-well plates (Greiner Bio-One) at 2000-3000 cells per well in technical triplicate. Seven different concentrations of TKIs or DMSO vehicle were added to reach a final volume of 40 μL per well. After 72 hours, 11 μL of Cell Titer Glo (Promega) was added to each well. Plates were incubated for a minimum of 10 minutes, and bioluminescence was determined using a FLUOstar OPTIMA plate reader (BMG LABTECH). Raw bioluminescence values were normalized to DMSO control treated cells, and values were plotted in GraphPad Prism. […] Drug screens were performed in technical triplicate on each plate and either duplicate or triplicate biological replicates. […] Statistical differences between groups were determined by ANOVA as described in the figure legends.

[4] = target: T4, EGFR G719A/R776C (Homo sapiens, UniProt P00533, G719A/R776C)
T4 construct: expressed in transfected cells; host or cells: Ba/F3

[5] = target: T5, EGFR L858R/C797S (Homo sapiens, UniProt P00533, C797S/L858R)
T5 construct: expressed in transfected cells; host or cells: Ba/F3

[6] = target: T6, EGFR D761N (Homo sapiens, UniProt P00533, D761N); settings: Classical-Like, 72 hours
T6 construct: expressed in transfected cells; host or cells: Ba/F3 cells, retroviral pBabe-Puro vector

[7] = target: T7, EGFR L858R/V834L (Homo sapiens, UniProt P00533, L858R/V834L); settings: Classical-Like, 72 hours
T7 construct: expressed in transfected cells; host or cells: Ba/F3 cells, retroviral pBabe-Puro vector
Experimental: (§4) Data represent the ratio of the IC50 value for a given TKI for cells with a classical-like EGFR mutation to the IC50 value for cells with wildtype EGFR.
as §2
(§5) After 48-72 hours of transduction, 2 μg/ml puromycin (Invitrogen) was added to Ba/F3 cell lines in complete RPMI. To select for EGFR positive cell lines, cells were stained with PE-EGFR (Biolegend) and sorted by FACS. After sorting, EGFR positive cells were maintained in RPMI containing 10% FBS, 1% penicillin/streptomycin, and 1 ng/ml EGF to support cell viability. […] Shortly, cells were plated in 384-well plates (Greiner Bio-One) at 2000-3000 cells per well in technical triplicate. Seven different concentrations of TKIs or DMSO vehicle were added to reach a final volume of 40 μL per well. After 72 hours, 11 μL of Cell Titer Glo (Promega) was added to each well. Plates were incubated for a minimum of 10 minutes, and bioluminescence was determined using a FLUOstar OPTIMA plate reader (BMG LABTECH). Raw bioluminescence values were normalized to DMSO control treated cells, and values were plotted in GraphPad Prism. […] Drug screens were performed in technical triplicate on each plate and either duplicate or triplicate biological replicates.

[8] = target: T8, EGFR V774M (Homo sapiens, UniProt P00533, V774M)
T8 construct: host or cells: Ba/F3

[9] = target: T9, EGFR Ex19del (Homo sapiens, UniProt P00533, DEL746-750); settings: Classical-Like, 72 hours
T9 construct: expressed in transfected cells; host or cells: Ba/F3 cells, retroviral pBabe-Puro vector
Experimental: as §4, §2, §5

[10] = target: T10, EGFR T725M (Homo sapiens, UniProt P00533, T725M); settings: Classical-Like, 72 hours
T10 construct: expressed in transfected cells; host or cells: Ba/F3 cells, retroviral pBabe-Puro vector (vector made by GeneScript from EGFR WT)

[11] = target: T11, EGFR Ex19del T854I (Homo sapiens, UniProt P00533, DEL746-750/T854I)
T11 construct: expressed in transfected cells; host or cells: Ba/F3 (retroviral transduction, pBabe-Puro based vectors)
Experimental: as §1, §2, §3

[12] = target: T12, EGFR L858R/L792H (Homo sapiens, UniProt P00533, L792H/L858R)
T12 construct: expressed in transfected cells; host or cells: Ba/F3

[13] = target: T13, EGFR L858R/T790M/C797S (Homo sapiens, UniProt P00533, C797S/L858R/T790M); settings: T790M-like-3R, 72 hours
T13 construct: expressed in transfected cells; host or cells: Ba/F3
Experimental: (§6) Data represent the ratio of the IC50 value for a given TKI for cells with a T790M-like-3R EGFR mutation to the IC50 value for cells with wildtype EGFR.
as §2
(§7) After 48-72 hours of transduction, 2 μg/ml puromycin (Invitrogen) was added to Ba/F3 cell lines in complete RPMI. To select for EGFR positive cell lines, cells were stained with PE-EGFR (Biolegend) and sorted by FACS. After sorting, EGFR positive cells were maintained in RPMI containing 10% FBS, 1% penicillin/streptomycin, and 1 ng/ml EGF to support cell viability. […] Shortly, cells were plated in 384-well plates (Greiner Bio-One) at 2000-3000 cells per well in technical triplicate. Seven different concentrations of TKIs or DMSO vehicle were added to reach a final volume of 40 μL per well. After 72 hours, 11 μL of Cell Titer Glo (Promega) was added to each well. Plates were incubated for a minimum of 10 minutes, and bioluminescence was determined using a FLUOstar OPTIMA plate reader (BMG LABTECH). Raw bioluminescence values were normalized to DMSO control treated cells, and values were plotted in GraphPad Prism. […] Drug screens were performed in technical triplicate on each plate and either duplicate or triplicate biological replicates. […] Statistical differences between groups were determined by ANOVA as described in the figure legends.

[14] = target: T14, EGFR Ex19del L718V (Homo sapiens, UniProt P00533, DEL746-750/L718V)
T14 construct: expressed in transfected cells; host or cells: Ba/F3
Experimental: as §1, §2, §3

[15] = target: T15, EGFR Ex19del G724S (Homo sapiens, UniProt P00533, DEL746-750/G724S)
T15 construct: expressed in transfected cells; host or cells: Ba/F3

[16] = target: T16, EGFR L858R (Homo sapiens, UniProt P00533, L858R); settings: Classical-Like, 72 hours
T16 construct: expressed in transfected cells; host or cells: Ba/F3 cells, retroviral pBabe-Puro vector
Experimental: as §4, §2, §5

[17] = target: T17, EGFR S768I V774M (Homo sapiens, UniProt P00533, S768I/V774M)
T17 construct: host or cells: Ba/F3
Experimental: as §1, §2, §3

[18] = target: T18, EGFR S768I/V769L (Homo sapiens, UniProt P00533, S768I/V769L)
T18 construct: host or cells: Ba/F3

[19] = target: T19, EGFR L718Q T790M (Homo sapiens, UniProt P00533, L718Q/T790M); settings: T790M-like-3R, 72 hours
T19 construct: expressed in transfected cells; host or cells: Ba/F3
Experimental: as §6, §2, §7

[20] = target: T20, EGFR E709K (Homo sapiens, UniProt P00533, E709K)
T20 construct: expressed in transfected cells; host or cells: Ba/F3

[21] = target: T21, EGFR Ex19del/T790M/L792H (Homo sapiens, UniProt P00533, DEL746-750/L792H/T790M); settings: T790M-like-3R, 72 hours
T21 construct: expressed in transfected cells; host or cells: Ba/F3
Experimental: as §6, §2, §7

[22] = target: T22, EGFR S784F (Homo sapiens, UniProt P00533, S784F); settings: Classical-Like, 72 hours
T22 construct: expressed in transfected cells; host or cells: Ba/F3 cells, retroviral pBabe-Puro vector (vector made by GeneScript from EGFR WT)

[23] = target: T23, EGFR K757R (Homo sapiens, UniProt P00533, K757R)
T23 construct: expressed in transfected cells; host or cells: Ba/F3

[24] = target: T24, EGFR Ex19del/L792H (Homo sapiens, UniProt P00533, DEL746-750/L792H)
T24 construct: expressed in transfected cells; host or cells: Ba/F3
Experimental: as §1, §2, §3

[25] = target: T25, EGFR Ex19del T790M (Homo sapiens, UniProt P00533, DEL746-750/T790M); settings: T790M-like-3S, 72 hours
T25 construct: expressed in transfected cells; host or cells: Ba/F3

[26] = target: T26, EGFR S768dupSVD (Homo sapiens, UniProt P00533, DUP768-770); settings: Ex20, 72 hours
T26 construct: expressed in transfected cells; host or cells: Ba/F3 cells, retroviral pBabe-Puro vector

SMILES: COc1cc2ncnc(Nc3ccc(F)c(Cl)c3)c2cc1NC(=O)/C=C/CN1CCCCC1 [Dacomitinib]
- ratio of IC50 for cells with mutant EGFR to IC50 for cells with wildtype EGFR (Mut/WT) ([1]; PACC, E709A, Ba/F3, 72 hours): 0.04024
- ratio of IC50 for cells with mutant EGFR to IC50 for cells with wildtype EGFR (Mut/WT) ([2]; PACC, L858R/L718V, Ba/F3, 72 hours): 0.001529
- ratio of IC50 for cells with mutant EGFR to IC50 for cells with wildtype EGFR (Mut/WT) [3]: 1.645
- ratio of IC50 for cells with mutant EGFR to IC50 for cells with wildtype EGFR (Mut/WT) ([4]; PACC, G719A/R776C, Ba/F3, 72 hours): 0.002518
- ratio of IC50 for cells with mutant EGFR to IC50 for cells with wildtype EGFR (Mut/WT) ([5]; PACC, L858R/C797S, Ba/F3, 72 hours): 0.04539
- ratio of IC50 for cells with mutant EGFR to IC50 for cells with wildtype EGFR (Mut/WT) [6]: 0.0008794
- ratio of IC50 for cells with mutant EGFR to IC50 for cells with wildtype EGFR (Mut/WT) [7]: 0.009314
- ratio of IC50 for cells with mutant EGFR to IC50 for cells with wildtype EGFR (Mut/WT) ([8]; PACC, V774M, Ba/F3, 72 hours): 0.04513
- ratio of IC50 for cells with mutant EGFR to IC50 for cells with wildtype EGFR (Mut/WT) [9]: 0.005832
- ratio of IC50 for cells with mutant EGFR to IC50 for cells with wildtype EGFR (Mut/WT) [10]: 0.03062
- ratio of IC50 for cells with mutant EGFR to IC50 for cells with wildtype EGFR (Mut/WT) ([11]; PACC, Ex19del T854I, Ba/F3, 72 hours): 0.4127
- ratio of IC50 for cells with mutant EGFR to IC50 for cells with wildtype EGFR (Mut/WT) ([12]; PACC, L858R/L792H, Ba/F3, 72 hours): 0.002838
- ratio of IC50 for cells with mutant EGFR to IC50 for cells with wildtype EGFR (Mut/WT) [13]: 41.69
- ratio of IC50 for cells with mutant EGFR to IC50 for cells with wildtype EGFR (Mut/WT) ([14]; PACC, Ex19del L718V, Ba/F3, 72 hours): 0.0061
- ratio of IC50 for cells with mutant EGFR to IC50 for cells with wildtype EGFR (Mut/WT) ([15]; PACC, Ex19del G724S, Ba/F3, 72 hours): 0.1707
- ratio of IC50 for cells with mutant EGFR to IC50 for cells with wildtype EGFR (Mut/WT) [16]: 0.002159
- ratio of IC50 for cells with mutant EGFR to IC50 for cells with wildtype EGFR (Mut/WT) ([17]; PACC, S768I V774M, Ba/F3, 72 hours): 0.1407
- ratio of IC50 for cells with mutant EGFR to IC50 for cells with wildtype EGFR (Mut/WT) ([18]; PACC, S768I/V769L, Ba/F3, 72 hours): 0.2085
- ratio of IC50 for cells with mutant EGFR to IC50 for cells with wildtype EGFR (Mut/WT) [19]: 4.784
- ratio of IC50 for cells with mutant EGFR to IC50 for cells with wildtype EGFR (Mut/WT) ([20]; PACC, E709K, Ba/F3, 72 hours): 0.2711
- ratio of IC50 for cells with mutant EGFR to IC50 for cells with wildtype EGFR (Mut/WT) [21]: 48.51
- ratio of IC50 for cells with mutant EGFR to IC50 for cells with wildtype EGFR (Mut/WT) [22]: 0.08997
- ratio of IC50 for cells with mutant EGFR to IC50 for cells with wildtype EGFR (Mut/WT) ([23]; PACC, K757R, Ba/F3, 72 hours): 0.04087
- ratio of IC50 for cells with mutant EGFR to IC50 for cells with wildtype EGFR (Mut/WT) ([24]; PACC, Ex19del/L792H, Ba/F3, 72 hours): 0.2436
- ratio of IC50 for cells with mutant EGFR to IC50 for cells with wildtype EGFR (Mut/WT) [25]: 4.871
- ratio of IC50 for cells with mutant EGFR to IC50 for cells with wildtype EGFR (Mut/WT) [26]: 0.882

SMILES: C=CC(=O)N1CC[C@@H](Oc2nc(Nc3ccc(N4CCC(N5CCN(C)CC5)CC4)cc3)c(C(N)=O)nc2CC)C1 [Naquotinib]
- ratio of the IC50 value for cells with a PACC EGFR mutation to the IC50 value for cells with wildtype EGFR ([1]; Ba/F3 cells, EGFR E709A (PACC), Mut/WT): 0.0743
- ratio of the IC50 value for cells with a PACC EGFR mutation to the IC50 value for cells with wildtype EGFR ([2]; Ba/F3 cells, EGFR L858R/L718V (PACC), Mut/WT): 3.358
- ratio of IC50 for cells with mutant EGFR to IC50 for cells with wildtype EGFR (Mut/WT) [3]: 1.077
- ratio of the IC50 value for cells with a PACC EGFR mutation to the IC50 value for cells with wildtype EGFR ([4]; Ba/F3 cells, EGFR G719A/R776C (PACC), Mut/WT): 0.2899
- ratio of the IC50 value for cells with a PACC EGFR mutation to the IC50 value for cells with wildtype EGFR ([5]; Ba/F3 cells, EGFR L858R/C797S (PACC), Mut/WT): 5.266
- ratio of IC50 for cells with mutant EGFR to IC50 for cells with wildtype EGFR (Mut/WT) [6]: 0.1966
- ratio of IC50 for cells with mutant EGFR to IC50 for cells with wildtype EGFR (Mut/WT) [7]: 0.05339
- ratio of the IC50 value for cells with a PACC EGFR mutation to the IC50 value for cells with wildtype EGFR ([8]; Ba/F3 cells, EGFR V774M (PACC), Mut/WT): 0.2862
- ratio of IC50 for cells with mutant EGFR to IC50 for cells with wildtype EGFR (Mut/WT) [9]: 0.006035
- ratio of IC50 for cells with mutant EGFR to IC50 for cells with wildtype EGFR (Mut/WT) [10]: 0.5761
- ratio of the IC50 value for cells with a PACC EGFR mutation to the IC50 value for cells with wildtype EGFR ([11]; Ba/F3 cells, EGFR Ex19del T854I (PACC), Mut/WT): 1.06
- ratio of the IC50 value for cells with a PACC EGFR mutation to the IC50 value for cells with wildtype EGFR ([12]; Ba/F3 cells, EGFR L858R/L792H (PACC), Mut/WT): 0.2624
- ratio of IC50 for cells with mutant EGFR to IC50 for cells with wildtype EGFR (Mut/WT) [13]: 32.29
- ratio of the IC50 value for cells with a PACC EGFR mutation to the IC50 value for cells with wildtype EGFR ([14]; Ba/F3 cells, EGFR Ex19del L718V (PACC), Mut/WT): 0.1035
- ratio of the IC50 value for cells with a PACC EGFR mutation to the IC50 value for cells with wildtype EGFR ([15]; Ba/F3 cells, EGFR Ex19del G724S (PACC), Mut/WT): 0.8866
- ratio of IC50 for cells with mutant EGFR to IC50 for cells with wildtype EGFR (Mut/WT) [16]: 0.07863
- ratio of the IC50 value for cells with a PACC EGFR mutation to the IC50 value for cells with wildtype EGFR ([17]; Ba/F3 cells, EGFR S768I V774M (PACC), Mut/WT): 0.4917
- ratio of the IC50 value for cells with a PACC EGFR mutation to the IC50 value for cells with wildtype EGFR ([18]; Ba/F3 cells, EGFR S768I/V769L (PACC), Mut/WT): 1.734
- ratio of IC50 for cells with mutant EGFR to IC50 for cells with wildtype EGFR (Mut/WT) [19]: 1.576
- ratio of the IC50 value for cells with a PACC EGFR mutation to the IC50 value for cells with wildtype EGFR ([20]; Ba/F3 cells, EGFR E709K (PACC), Mut/WT): 0.2663
- ratio of IC50 for cells with mutant EGFR to IC50 for cells with wildtype EGFR (Mut/WT) [21]: 4.634
- ratio of IC50 for cells with mutant EGFR to IC50 for cells with wildtype EGFR (Mut/WT) [22]: 0.3727
- ratio of the IC50 value for cells with a PACC EGFR mutation to the IC50 value for cells with wildtype EGFR ([23]; Ba/F3 cells, EGFR K757R (PACC), Mut/WT): 1.658
- ratio of the IC50 value for cells with a PACC EGFR mutation to the IC50 value for cells with wildtype EGFR ([24]; Ba/F3 cells, EGFR Ex19del/L792H (PACC), Mut/WT): 0.02929
- ratio of IC50 for cells with mutant EGFR to IC50 for cells with wildtype EGFR (Mut/WT) [25]: 0.009604
- ratio of IC50 for cells with mutant EGFR to IC50 for cells with wildtype EGFR (Mut/WT) [26]: 1.135
